For this assay, the system named is LG0703-F948-PDC complex spheroid viability. Description: Anticancer human tumor LG0703-F948-PDC patient-derived lung adenocarcinoma cell line growth inhibition [RAS]. As to conditions: for viability, T/C: stronger effect = lower value. Summed up:
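Multi-cell-type spheroids: tumor cells plus HUVEC endothelial cells and mesenchymal stem cells. RAS-pathway inhibitors were combined with targeted agents, each dosed in half-log steps down from clinical Cmax, or from 10 microM when Cmax was unknown.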

As usually defined, the viability, T/C is the ratio of treated to control. As a reminder, the IC50 is the concentration needed to halve the response being measured.

Where “and” joins values, the source holds several entries; their conditions need not be identical. Identical values can stand only once.
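Further: spheroids exposed to agents for 7 days.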
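Wherever viability, T/C is given: 100% = DMSO vehicle wells.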

`CCN1CCN(Cc2ccc(Nc3ncc(F)c(-c4cc(F)c5nc(C)n(C(C)C)c5c4)n3)nc2)CC1`: the viability, T/C is, setting by setting: (compound 0.00316 µM) 110% and 103% (2×) and 94.4%; (compound 0.01 µM) 91.3% [middle of 4 runs]; (compound 0.0316 µM) 84.7% [middle of 4 runs]; (compound 0.1 µM) 85.1% [middle of 4 runs]; (compound 0.316 µM) 92.1% [middle of 4 runs]; (compound 1 µM) 83.4% [middle of 4 runs]. Moreover, the concentration for half-maximal inhibition (IC50) (curve of compound) was over 1000 nM.

As to `CCC(CC)c1cc(NC2CCC(N)C2)n2nccc2n1` (stereo not given) + C#Cc1c(F)ccc2cc(O)cc(-c3ncc4c(N5CC6CCC(C5)N6)nc(OCC56CCCN5CC(F)C6)nc4c3F)c12, the IC50 reads like this: (curve of first compound, second compound 0.0316 µM) 1150 nM; (curve of first compound, second compound 0.1 µM) 1120 nM; (curve of first compound, second compound 0.316 µM) 1350 nM; (curve of first compound, second compound 1 µM) 936 nM; (curve of first compound, second compound 3.16 µM) 456 nM; (curve of first compound, second compound 10 µM) 35.1 nM. Besides, the viability, T/C is, setting by setting: (second compound 0.0316 µM, first compound 0.0316 µM) 95%; (second compound 0.0316 µM, first compound 0.1 µM) 80.1%; (second compound 0.0316 µM, first compound 0.316 µM) 83.9%; (second compound 0.0316 µM, first compound 1 µM) 56.7%; (second compound 0.0316 µM, first compound 3.16 µM) 2.63%; (second compound 0.0316 µM, first compound 10 µM) 0.05%. For the same molecule, the viability, T/C is 97.5% (second compound 0.1 µM, first compound 0.0316 µM); 80.8% (second compound 0.1 µM, first compound 0.1 µM); 87.7% (second compound 0.1 µM, first compound 0.316 µM); 55.1% (second compound 0.1 µM, first compound 1 µM); 2.53% (second compound 0.1 µM, first compound 3.16 µM); 0.22% (second compound 0.1 µM, first compound 10 µM). Moreover, the viability, T/C runs as follows: (second compound 0.316 µM, first compound 0.0316 µM) 81.2%; (second compound 0.316 µM, first compound 0.1 µM) 68%; (second compound 0.316 µM, first compound 0.316 µM) 73.4%; (second compound 0.316 µM, first compound 1 µM) 66.5%; (second compound 0.316 µM, first compound 3.16 µM) 3.15%; (second compound 0.316 µM, first compound 10 µM) 0.1%. Besides, the viability, T/C reads like this: (second compound 1 µM, first compound 0.0316 µM) 73.4%; (second compound 1 µM, first compound 0.1 µM) 69.8%; (second compound 1 µM, first compound 0.316 µM) 65.1%; (second compound 1 µM, first compound 1 µM) 49.3%; (second compound 1 µM, first compound 3.16 µM) 2.65%; (second compound 1 µM, first compound 10 µM) 0.06%. For the same molecule, the viability, T/C (second compound 3.16 µM, first compound 0.0316 µM) is 64%; the viability, T/C (second compound 3.16 µM, first compound 0.1 µM) is 55.3%; the viability, T/C (second compound 3.16 µM, first compound 0.316 µM) was 56.7%; the viability, T/C (second compound 3.16 µM, first compound 1 µM) is 33.8%; the viability, T/C (second compound 3.16 µM, first compound 3.16 µM) was 1.79%; the viability, T/C (second compound 3.16 µM, first compound 10 µM) was 0.56%. For the same molecule, the viability, T/C is 45% (second compound 10 µM, first compound 0.0316 µM); 56% (second compound 10 µM, first compound 0.1 µM); 31.7% (second compound 10 µM, first compound 0.316 µM); 19% (second compound 10 µM, first compound 1 µM); 0.77% (second compound 10 µM, first compound 3.16 µM); 0.53% (second compound 10 µM, first compound 10 µM).

Consider `O=C(c1ccc(F)c(F)c1Nc1ccc(I)cc1F)N1CC(O)([C@@H]2CCCCN2)C1`, for which the viability, T/C reads like this: (compound 0.00316 µM) 96.7% [middle of 4 runs]; (compound 0.01 µM) 73.4% [middle of 4 runs]; (compound 0.0316 µM) 57.7% [middle of 4 runs]; (compound 0.1 µM) 42.3% [middle of 4 runs]; (compound 0.316 µM) 30.9% [middle of 4 runs]; (compound 1 µM) 25.4% [middle of 4 runs].

The values are drawn from PubChem BioAssay AID2060890 (Molecular Pharmacology Branch, DTP, NCI, 2025).
